Experimental data published in ChEMBL document CHEMBL1697781, “Assessment of the health effects of chemicals in humans: II. Construction of an adverse effects database for QSAR modeling” (Curr Drug Discov Technol, 2004).

Tested on: Hepatotoxicity
Experiment: FDA HLAED, liver enzyme composite activity
Conditions: human

Compound	Composite Activity - Active	Composite Activity - Marginal
CC(=O)O.C[C@H]1C[C@@H]2[C@H]([C@@H](O)C[C@@]3(C)[C@H]2CC[C@]3(O)C(=O)CO)[C@@]2(C)C=CC(=O)C=C12	0	0
FC(F)OC(F)(F)C(F)Cl (stereo not drawn)	0	0
N[C@@H](Cc1ccc(N(CCCl)CCCl)cc1)C(=O)O	0	0
NC12CC3CC(CC(C3)C1)C2 [AMANTADINE]	0	0
NCCCCCC(=O)O [AMINOCAPROIC ACID]	0	0
CN(C)CCC=C1c2ccccc2CCc2ccccc21 [AMITRIPTYLINE]	0	0
C[C@@H]1[C@H](O)[C@@H](C)/C=C/C=C/C=C/C=C/C=C/C=C/C=C/[C@H](O[C@@H]2O[C@H](C)[C@@H](O)[C@H](N)[C@@H]2O)C[C@@H]2O[C@](O)(C[C@@H](O)C[C@@H](O)[C@H](O)CC[C@@H](O)C[C@@H](O)CC(=O)O[C@H]1C)C[C@H](O)[C@H]2C(=O)O [AMPHOTERICIN B]	0	0
CC(=O)Oc1ccccc1C(=O)O [ASPIRIN]	0	0
CN1[C@@H]2CC[C@H]1C[C@@H](OC(c1ccccc1)c1ccccc1)C2 [BENZTROPINE]	0	0
CC(=O)OCC(=O)[C@@]1(O)[C@@H](C)C[C@H]2[C@@H]3CCC4=CC(=O)C=C[C@]4(C)[C@@]3(F)[C@@H](O)C[C@@]21C [BETAMETHASONE ACETATE]	0	0
CC(=O)OCC(=O)[C@@]1(OC(=O)C(C)C)[C@@H](C)C[C@H]2[C@@H]3CCC4=CC(=O)C=C[C@]4(C)[C@@]3(F)[C@@H](O)C[C@@]21C [BETAMETHASONE ACIBUTATE]	0	0
C[C@H]1C[C@H]2[C@@H]3CCC4=CC(=O)C=C[C@]4(C)[C@@]3(F)[C@@H](O)C[C@]2(C)[C@@]1(OC(=O)c1ccccc1)C(=O)CO [BETAMETHASONE BENZOATE]	0	0
CCCC(=O)O[C@]1(C(=O)COC(=O)CC)[C@@H](C)C[C@H]2[C@@H]3CCC4=CC(=O)C=C[C@]4(C)[C@@]3(F)[C@@H](O)C[C@@]21C [BETAMETHASONE BUTYRATE PROPIONATE]	0	0
CCC(=O)OCC(=O)[C@@]1(OC(=O)CC)[C@@H](C)C[C@H]2[C@@H]3CCC4=CC(=O)C=C[C@]4(C)[C@@]3(F)[C@@H](O)C[C@@]21C [BETAMETHASONE DIPROPIONATE]	0	0
CCCCC(=O)O[C@]1(C(=O)CO)[C@@H](C)C[C@H]2[C@@H]3CCC4=CC(=O)C=C[C@]4(C)[C@@]3(F)[C@@H](O)C[C@@]21C [BETAMETHASONE VALERATE]	0	0
C[C@H]1C[C@H]2[C@@H]3CCC4=CC(=O)C=C[C@]4(C)[C@@]3(F)[C@@H](O)C[C@]2(C)[C@@]1(O)C(=O)CO [BETAMETHASONE]	0	0
CS(=O)(=O)OCCCCOS(C)(=O)=O [BUSULFAN]	0	0
Cc1nnc(SCC2=C(C(=O)O)N3C(=O)[C@@H](NC(=O)Cn4cnnn4)[C@H]3SC2)s1 [CEFAZOLIN]	0	0
CN1C(=O)CCS(=O)(=O)C1c1ccc(Cl)cc1 (stereo not drawn) [CHLORMEZANONE]	0	0
O=C(O)C1N=C(c2ccccc2)c2cc(Cl)ccc2NC1=O (stereo not drawn) [CLORAZEPIC ACID]	0	0
O=C1CN(/N=C/c2ccc(-c3ccc([N+](=O)[O-])cc3)o2)C(O)=N1 [DANTROLENE]	0	0
CC(=O)OCC(=O)[C@@]1(OC(=O)c2ccco2)[C@H](C)C[C@H]2[C@@H]3CCC4=CC(=O)C=C[C@]4(C)[C@@]3(F)[C@@H](O)C[C@@]21C [DEXAMETHASONE ACEFURATE]	0	0
CC(=O)OCC(=O)[C@@]1(O)[C@H](C)C[C@H]2[C@@H]3CCC4=CC(=O)C=C[C@]4(C)[C@@]3(F)[C@@H](O)C[C@@]21C [DEXAMETHASONE ACETATE]	0	0
CCC(=O)OCC(=O)[C@@]1(OC(=O)CC)[C@H](C)C[C@H]2[C@@H]3CCC4=CC(=O)C=C[C@]4(C)[C@@]3(F)[C@@H](O)C[C@@]21C [DEXAMETHASONE DIPROPIONATE]	0	0
CCCCC(=O)O[C@]1(C(=O)CO)[C@H](C)C[C@H]2[C@@H]3CCC4=CC(=O)C=C[C@]4(C)[C@@]3(F)[C@@H](O)C[C@@]21C [DEXAMETHASONE VALARATE]	0	0

Compound	Composite Activity - Active	Composite Activity - Marginal
C[C@@H]1C[C@H]2[C@@H]3CCC4=CC(=O)C=C[C@]4(C)[C@@]3(F)[C@@H](O)C[C@]2(C)[C@@]1(O)C(=O)CO [DEXAMETHASONE]	0	0
CC(C)N(CCC(C(N)=O)(c1ccccc1)c1ccccn1)C(C)C (stereo not drawn) [DISOPYRAMIDE]	0	0
COc1cccc2c1C(=O)c1c(O)c3c(c(O)c1C2=O)C[C@@](O)(C(=O)CO)C[C@@H]3O[C@H]1C[C@H](N)[C@H](O)[C@H](C)O1 [DOXORUBICIN]	0	0
CC[C@@H](CO)NCCN[C@@H](CC)CO [ETHAMBUTOL]	0	0
CCNC(C)Cc1cccc(C(F)(F)F)c1 (stereo not drawn) [FENFLURAMINE]	0	0
O=c1[nH]c(=O)n([C@H]2C[C@H](O)[C@@H](CO)O2)cc1F [FLOXURIDINE]	0	0
Nc1nc(=O)[nH]cc1F [FLUCYTOSINE]	0	0
CCCCCCCCCC(=O)OCCN1CCN(CCCN2c3ccccc3Sc3ccc(C(F)(F)F)cc32)CC1 [FLUPHENAZINE DECANOATE]	0	0
CCCCCCC(=O)OCCN1CCN(CCCN2c3ccccc3Sc3ccc(C(F)(F)F)cc32)CC1 [FLUPHENAZINE ENANTHATE]	0	0
OCCN1CCN(CCCN2c3ccccc3Sc3ccc(C(F)(F)F)cc32)CC1 [FLUPHENAZINE]	0	0
O=C(CCCN1CCC(O)(c2ccc(Cl)cc2)CC1)c1ccc(F)cc1 [HALOPERIDOL]	0	0
NS(=O)(=O)c1cc2c(cc1Cl)NCNS2(=O)=O [HYDROCHLOROTHIAZIDE]	0	0
NC(=O)NO [HYDROXYUREA]	0	0
OCCOCCN1CCN(C(c2ccccc2)c2ccc(Cl)cc2)CC1 (stereo not drawn) [HYDROXYZINE]	0	0
COC(=O)Nc1nc2ccc(C(=O)c3ccccc3)cc2[nH]1 [MEBENDAZOLE]	0	0
CC(=O)O[C@]1(C(C)=O)CC[C@H]2[C@@H]3C[C@H](C)C4=CC(=O)CC[C@]4(C)[C@H]3CC[C@@]21C [MEDROXYPROGESTERONE ACETATE]	0	0
CC(=O)O[C@]1(C(C)=O)CC[C@H]2[C@@H]3C=C(C)C4=CC(=O)CC[C@]4(C)[C@H]3CC[C@@]21C [MEGESTROL ACETATE]	0	0
C#C[C@]1(O)CC[C@H]2[C@@H]3CCc4cc(OC)ccc4[C@H]3CC[C@@]21C [MESTRANOL]	0	0
C=CCC1(C(C)C#CCC)C(=O)N=C(O)N(C)C1=O (stereo not drawn) [METHOHEXITAL]	0	0
C[C@](N)(Cc1ccc(O)c(O)c1)C(=O)O [METHYLDOPA]	0	0
C[C@H]1C[C@@H]2[C@H]([C@@H](O)C[C@@]3(C)[C@H]2CC[C@]3(O)C(=O)COC(=O)CCCCCCC(=O)N(C)CCS(=O)(=O)O)[C@@]2(C)C=CC(=O)C=C12 [METHYLPREDNISOLONE 21-SULEPTANIC ACID ESTER]	0	0
CCC(=O)O[C@]1(C(=O)COC(C)=O)CC[C@H]2[C@@H]3C[C@H](C)C4=CC(=O)C=C[C@]4(C)[C@H]3[C@@H](O)C[C@@]21C [METHYLPREDNISOLONE ACEPONATE]	0	0
C[C@H]1C[C@@H]2[C@H]([C@@H](O)C[C@@]3(C)[C@H]2CC[C@]3(O)C(=O)COC(=O)CCC(=O)O)[C@@]2(C)C=CC(=O)C=C12 [METHYLPREDNISOLONE HEMISUCCINATE]	0	0
C[C@H]1C[C@@H]2[C@H]([C@@H](O)C[C@@]3(C)[C@H]2CC[C@]3(O)C(=O)CO)[C@@]2(C)C=CC(=O)C=C12 [METHYLPREDNISOLONE]	0	0
CC(C)(S)[C@@H](N)C(=O)O [PENICILLAMINE]	0	0

Same assay, conditions: human, Liver

Compound	Composite Activity - Active	Composite Activity - Marginal
CC1=C(C(=O)O)N2C(=O)[C@@H](NC(=O)[C@H](N)c3ccccc3)[C@H]2SC1 [CEPHALEXIN ANHYDROUS]	0	0
CN(C)CCC=C1c2ccccc2C=Cc2ccccc21 [CYCLOBENZAPRINE]	0	0
CN1C(=O)CN=C(c2ccccc2)c2cc(Cl)ccc21 [DIAZEPAM]	0	0
CCc1cc(C(N)=S)ccn1 [ETHIONAMIDE]	0	0
